Test results taken from PubChem BioAssay AID2060490 (Molecular Pharmacology Branch, DTP, NCI, 2025).
Values joined by “and” are separate entries in the source; they are usually repeats but may differ in a detail not shown here. Equal values may be shown once. Values belong to the compound of their own block, whether it stands above or below them.

System: 885512-296-R-J2-PDC complex spheroid viability
Assay: Anticancer human tumor 885512-296-R-J2-PDC patient-derived breast carcinoma cell line growth inhibition [GQUAD]
Conditions: for viability, T/C: stronger effect = lower value
Source text: DNA G-quadruplex Stabilizer Agents in Combinations in Complex Spheroids
A high-throughput screen of multi-cell type tumor spheroids was designed to identify active combinations of DNA G-quadruplex stabilizer agents and targeted small molecules. Complex spheroids include a stromal component modeled by human endothelial cells (HUVEC) and fibroblasts modeled by human mesenchymal stem cells (MSCs). The concentration ranges selected for each drug and investigational agent were based upon clinically achievable concentrations if the clinical Cmax of the agent was known.
Compounds. The drugs and investigational agents: pidnarulex (CX-5461; NSC782164), APTO-253 (NSC789042), BRACO-19 (NSC847499), peposertib (NSC802822), ceralasertib (NSC780249), elimusertib (NSC800525), camonsertib (NSC841442), AZD-1390 (NSC803789), olaparib (NSC753686), talazoparib (NSC767125), ART-558 (NSC835418), sotorasib (NSC818433), MRTX-1133 (NSC836407), SN-38 (NSC673596), topotecan (NSC609699), etoposide (NSC141540), doxorubicin (NSC123127), gemcitabine (NSC613327), 5-fluorouracil (NSC19893), paclitaxel (NSC125973), vemurafenib (NSC761431), panobinostat (NSC761190), R-306465 (JNJ-16241199; NSC773264), adavosertib (NSC754352), TP-3654 (NSC805149), carboplatin (NSC241240), KSQ-4279 (NSC840948), and staurosporine (NSC755774) were obtained from the National Cancer Institute (NCI) Developmental Therapeutics Program Chemical Repository (34). The FDA-approved anticancer drug set is available from the NCI Developmental Therapeutics Program. […] The stock solutions were prepared in dimethyl sulfoxide (DMSO, Sigma-Aldrich, St. Louis, MO, cat. D2650) at 800-fold the tested concentration and stored at -70 degrees C prior to their use. All drugs and investigational agents were tested over a range starting from a high concentration at or near the clinical Cmax and decreasing in half-log increments. If the clinical Cmax for an agent had not been determined, the highest concentration tested was 10 microM.
2.3 Cell Culture. All cells were maintained in an incubator at 37 degrees C and 5% CO2 with 95% humidity. The PDC lines were cultured according to standard operating procedures established by the NCI PDMR. All PDCs were thawed and cultured in Matrigel-coated flasks prepared with a working solution of 1X Ham's F-12 nutrient mix, without supplementation (Invitrogen, cat. 11765054), 100 U/mL penicillin-streptomycin (Invitrogen, cat. 15140122), and 2.5% Matrigel (Corning Inc., cat. 354248) for the first three passages. The 857933-349-R-J2-PDC line was cultured in 6C/Colon 1B media, which includes advanced DMEM/F-12 (Thermo Fisher Scientific, cat. 12634028), 10 mM HEPES (Thermo Fisher Scientific, cat. 15630080), 1X GlutaMAX supplement (Thermo Fisher Scientific, cat. 35050061), 0.1 mg/mL primocin (InvivoGen, cat. ant-pm-2), 10% defined fetal bovine serum, heat inactivated (HyClone Laboratories Inc., cat. SH30070.03HI), 50% L-WRN conditioned media (ATCC, cat. CRL-3276), 1.25 mM N-Acetyl-L-cysteine (Sigma-Aldrich, cat. A9165), 10 mM nicotinamide (Sigma-Aldrich, cat. N0636), 1X B-27 supplement (Thermo Fisher Scientific, cat. 17504044), 1X N-2 supplement (Thermo Fisher Scientific, cat. 17502048), 10 microM Y-27632 dihydrochloride (Tocris Bioscience, cat. 1254), and 50 ng/mL human EGF recombinant protein (Thermo Fisher Scientific, cat. PHG0311). The 485176-168-R4-J1-PDC line was cultured in Panc media, which includes all 6C/Colon 1B media components plus 100 ng/mL human FGF-10 (Thermo Fisher Scientific, cat. 100-26), 500 nM SB-431542 (Selleckchem, cat. S1067), and gastrin (Tocris, cat. 3006).
[…]
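Also: spheroids exposed to the compounds for one week.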
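For viability, T/C in this document: percent of tumor spheroid viability relative to DMSO vehicle control wells.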

IC50 (curve of compound): < 31.6 nM
SMILES: CC1COCCN1c1cc(-c2ccnn2C)c2ccnc(-c3ccn[nH]3)c2n1 (centres undefined)
viability, T/C (compound 0.0316 µM): 48% and 48.8% and 42.3% | viability, T/C (compound 0.1 µM): 6.72% and 6.01% and 7.2% | viability, T/C (compound 0.316 µM): 2.82% and 3.14% and 2.97% | viability, T/C (compound 1 µM): 3.36% and 4.09% and 3.06% | viability, T/C (compound 3.16 µM): 4.39% and 4.91% and 5.11% | viability, T/C (compound 10 µM): 7.29% and 7.28% and 8.11%

SMILES: COc1cccc2c1C(=O)c1c(O)c3c(c(O)c1C2=O)CC(O)(C(=O)CO)CC3OC1CC(N)C(O)C(C)O1 (centres undefined) + Cc1[nH]c2ccc(F)cc2c1-c1nc2c3cccnc3c3ncccc3c2[nH]1
IC50 (curve of first compound, second compound 0.0316 µM): 89.6 nM | IC50 (curve of first compound, second compound 0.1 µM): 84.1 nM | IC50 (curve of first compound, second compound 0.316 µM): 81.9 nM | IC50 (curve of first compound, second compound 1 µM): 58 nM | IC50 (curve of first compound, second compound 3.16 µM): < 31.6 nM | IC50 (curve of first compound, second compound 10 µM): < 31.6 nM | viability, T/C (second compound 0.0316 µM, first compound 0.0316 µM): 96.2% | viability, T/C (second compound 0.0316 µM, first compound 0.1 µM): 41.8% | viability, T/C (second compound 0.0316 µM, first compound 0.316 µM): 25.3% | viability, T/C (second compound 0.0316 µM, first compound 1 µM): 9.04% | viability, T/C (second compound 0.0316 µM, first compound 3.16 µM): 0.5% | viability, T/C (second compound 0.0316 µM, first compound 10 µM): 2.46% | viability, T/C (second compound 0.1 µM, first compound 0.0316 µM): 101% | viability, T/C (second compound 0.1 µM, first compound 0.1 µM): 36.4% | viability, T/C (second compound 0.1 µM, first compound 0.316 µM): 23.9% | viability, T/C (second compound 0.1 µM, first compound 1 µM): 10.9% | viability, T/C (second compound 0.1 µM, first compound 3.16 µM): 0.36% | viability, T/C (second compound 0.1 µM, first compound 10 µM): 3.62% | viability, T/C (second compound 0.316 µM, first compound 0.0316 µM): 85.5% | viability, T/C (second compound 0.316 µM, first compound 0.1 µM): 39.4% | viability, T/C (second compound 0.316 µM, first compound 0.316 µM): 25.1% | viability, T/C (second compound 0.316 µM, first compound 1 µM): 8.52% | viability, T/C (second compound 0.316 µM, first compound 3.16 µM): 0.35% | viability, T/C (second compound 0.316 µM, first compound 10 µM): 2.33% | viability, T/C (second compound 1 µM, first compound 0.0316 µM): 67.7% | viability, T/C (second compound 1 µM, first compound 0.1 µM): 32% | viability, T/C (second compound 1 µM, first compound 0.316 µM): 20% | viability, T/C (second compound 1 µM, first compound 1 µM): 7.54% | viability, T/C (second compound 1 µM, first compound 3.16 µM): 0.39% | viability, T/C (second compound 1 µM, first compound 10 µM): 2.51% | viability, T/C (second compound 3.16 µM, first compound 0.0316 µM): 17.2% | viability, T/C (second compound 3.16 µM, first compound 0.1 µM): 12.3% | viability, T/C (second compound 3.16 µM, first compound 0.316 µM): 4.34% | viability, T/C (second compound 3.16 µM, first compound 1 µM): 2.57% | viability, T/C (second compound 3.16 µM, first compound 3.16 µM): 0.34% | viability, T/C (second compound 3.16 µM, first compound 10 µM): 1.2% | viability, T/C (second compound 10 µM, first compound 0.0316 µM): 1.64% | viability, T/C (second compound 10 µM, first compound 0.1 µM): 1.76% | viability, T/C (second compound 10 µM, first compound 0.316 µM): 2.1% | viability, T/C (second compound 10 µM, first compound 1 µM): 1.15% | viability, T/C (second compound 10 µM, first compound 3.16 µM): 0.87% | viability, T/C (second compound 10 µM, first compound 10 µM): 0.81%
